Tests used:
[1] = Liver microsomal stability, rat; format: in vitro ADME; conditions: rat; matrix not given; read-out: Clintr,unbound rat (converted)
Experimental: The microsomal stability assay was performed by incubation of test compound at 1 μM, 0.2% DMSO in phosphate buffer with microsomes (0.5 mg/mL) from mouse, rat, dog, or human (Xeno-Tech, Kansas City, KS, USA), and cofactors with final concentrations of 0.6 U/mL glucose-6- phosphate dehydrogenase, 3.3 mM MgCl2, 3.3 mM glucose-6-phosphate, and 1.3 mM nicotinamide adenine dinucleotide phosphate (NADP)+. Before addition of the microsomes (time zero) and after 30 min of incubation at 37 °C with shaking, the reaction was stopped, and proteins were precipitated with an excess of acetonitrile containing an internal standard. The samples were mixed, centrifuged, and filtered, and the supernatant was analyzed by liquid chromatography–mass spectrometry/mass spectrometry (LC–MS/MS). The instrument responses (peak areas/IS peak areas) were referenced to the zero-time point samples (considered as 100%) to determine the percentage of compound remaining. In vitro unbound intrinsic clearance (CLint,u) was calculated from the half-life using the following equations: [drawing 1] [drawing 2] To take into account nonspecific binding, scaled CLint values were corrected with the fraction unbound in microsomes (fu, mic). [drawing 3]
Equilibrium dialysis is a technique used to measure microsomal binding. Briefly, the assay was performed in a 96-well Teflon dialysis unit (Dialysis Device), where each well consists of two chambers separated by a dialysis membrane (membrane strips, MW cutoff 12–14 kDa, HTDialysis). Inactivated liver microsomes (pooled human liver microsomes, Xenotech, protein concentration of 0.5 mg/mL) spiked with a compound (1 μM final concentration, 0.5% DMSO) were added to one chamber and buffer solution (50 mM PBS Buffer) was added to the other side of the well. Each compound was analyzed in duplicate for 4 h at 37 °C. At the end of incubation, both chambers were sampled and analyzed by LC-MS/MS. The unbound microsomal fraction (fu, mic) was calculated as the concentration in buffer divided by the total concentration in the microsomal side. Positive controls included in this assay are terfenadine and verapamil.

[2] = In vitro micronucleus test; format: cell-based
MDCKII-MDR1 cells = assay: MDCK-MDR1 permeability assay; format: in vitro ADME, canine; conditions: A to B, n = 2
Experimental: (§1) MDCKII-MDR1 cells were seeded on Millicell-24 cell culture insert plate assemblies at a final concentration of 0.12 × 10^6 cells/well. Cells were cultured in a CO2 incubator for 3–4 days prior to experiment start with media replacement 24 h post seeding. On the day of the experiment, cells were preincubated for 45 min with Dulbecco’s Phosphate Buffer saline (D-PBS, pH7.4), containing 1% of DMSO. Compounds were prepared in D-PBS, pH 7.4 and added to either the apical or basolateral chambers of the Millicell cell culture insert plates assembly at a final concentration of 10 μM with a final DMSO concentration of 1%. Lucifer Yellow was added to all donor buffer solutions in order to assess integrity of the cell monolayers by monitoring Lucifer Yellow permeation. […] After brief mixing and centrifugation, the supernatant was analyzed by LC-MS/MS. The apparent permeability coefficient (Papp) was calculated according to the following equation: Papp = (dQ/dT)(1/C0)(1/A), where dQ/dT = permeability rate; C0 = initial concentration in donor compartment; A = surface area of the cell monolayer (0.7 cm^2). […] The efflux ratio is calculated as Papp from B to A divided by Papp from A to B. Passive permeability (×10^–6 cm/s) is calculated by the formula: Papp from A to B × efflux ratio + 1/2.

[3] = MDCK-MDR1 permeability assay; format: in vitro ADME, canine; conditions: dog, MDCK-MDR1, pH 7.4; A to B, n = 2; read-out: MDCK-MDR1 PA2B
Experimental: as §1

CYP3A4 = assay: CYP reversible inhibition in HLM, CYP3A4; format: in vitro ADME; conditions: human, human liver microsomes
Experimental: Test compounds were diluted in methanol and then added to mixture containing 50 mM potassium phosphate buffer, pH 7.4, human liver microsomes (BD Gentest) and probe substrate. After prewarming for 5 min at 37 °C, the reaction was started by adding cofactor mix (7.65 mg/mL glucose-6-phosphate, 1.7 mg/mL NADP, 6 U/mL of glucose-6-phosphate dehydrogenase), resulting in seven final concentrations of test compounds in the range 0.14–100 μM (2% methanol). Isoform specific conditions regarding probe substrate and microsomal protein concentrations are available in Table 2. Final concentrations of cofactor mix components were as follows: 1.56 mg/mL glucose-6-phosphate, 0.34 mg/mL NADP, and 1.2 U/mL glucose-6-phosphate dehydrogenase. After incubation at 37 °C, the reaction was terminated with acetonitrile:methanol (2:1) solution with internal standard. Samples were centrifuged, and the supernatant fractions were analyzed by LC-MS/MS. The instrument responses (test compounds and internal standard peak areas) were referenced to those for solvent controls (assumed as 100%) in order to determine the percentage reduction in probe metabolism. Percent of control activity vs concentration plots were generated and fitted using GraphPad Prism software to generate IC50.

(h)Sigma = assay: Radioligand binding, (h)Sigma (Eurofins panel); parameters: species or system human; conditions: read-out: IC50, inhibition of radioligand binding to (h)Sigma
[4] = Hepatocyte stability, mouse; format: in vitro ADME; conditions: mouse hepatocytes
Experimental: The hepatocyte stability assay was performed by incubation of test compound at 1 μM, 0.03% DMSO in modified Krebs–Henseleit buffer with suspension of pooled cryopreserved hepatocytes (BioIVT, Hicksville, NY, USA) from mouse, rat, dog, or human (BioIVT, Hicksville, NY, USA) at 0.5 million viable hepatocytes/mL. Before adding the hepatocytes (time zero) and after 10, 20, 45, 90, 120, and 180 min of incubation (n = 2) at 37 °C while gently shaking, the reaction was stopped and proteins were precipitated with an excess of acetonitrile containing an internal standard. The samples were mixed, centrifuged, and filtered, and the supernatant was analyzed by liquid chromatography–mass spectrometry/mass spectrometry (LC–MS/MS). The instrument responses (peak areas/IS peak areas) were referenced to the zero-time point samples (considered as 100%) in order to determine the percentage of compound remaining.

CLint scaled at 1 μM [1]: 82.3 mL/min/kg
MDCK-MDR1 PA2B (MDCKII-MDR1 cells): 5.45 cm × 10^–6 s^–1
Papp A→B at 1 h, 10 μM [3]: 5.45 ×10⁻⁶ cm/s
IC50 (CYP3A4; pH 7.4, probe midazolam): > 100 µM
IC50 (CYP3A4; pH 7.4, probe testosterone): > 100 µM
IC50 ((h)Sigma): 0.36 µM
Hepatocyte stability: %LBF mouse [4]: 24 %LBF
Hepatocyte stability: predicted hepCl mouse ([4]; 1 µM): 31.7 mL/min/kg
Structure (SMILES): COC1CCN(C2CCN(c3cc(C(=O)NS(=O)(=O)N(C)C)nc4c3c(C3CCC3)nn4-c3ccc(F)cc3)CC2)CC1 [Compound 52, 3-Cyclobutyl-N-(N,N-dimethylsulfamoyl)-1-(4-fluorophenyl)-4-(4-methoxy-[1,4′-bipiperidin]-1′-yl)-1H-pyrazolo[3,4-b]pyridine-6-carboxamide]
clastogenicity / aneugenicity [2]: not mutagenic, clastogenic, or aneugenic

From article PMC11017246, “Discovery of GLPG2737, a Potent Type 2 Corrector of CFTR for the Treatment of Cystic Fibrosis in Combination with a Potentiator and a Type 1 Co-corrector” (Journal of Medicinal Chemistry, 2024)
